# In patent publication US20080038840A1, “Fluorescent Method And Compounds To Monitor Protein-Lipid Binding” (EUROPAEISCHES LABORATORIUM FUER MOLEKULARBIOLOGIE, priority 2004, published 2008):
# “Also recorded” adds a separate entry of the source. Where two headings read alike, the source gives them in different places.
# Key:
# [1] = Excitation and emission values of the fluorescent dyes in solvent; format: physicochemical; settings: for Emission / Excitation: measured in methanol
# Description: Some exemplary fluorescent dyes according to the invention together with values for excitation and emission are included in table 1. […] The excitation and emission values of the fluorescent dyes were measured in methanol, which simulates a protein-environment, thus yielding a shift of the emission to shorter wavelengths. For comparison, excitation and emission values for compound 10 were also measured in HEPES buffer (i.e. under initial, aqueous assay conditions). In this aqueous environment, the excitation is 620 nm and the emission is 688 nm compared to an emission at 662 nm in methanol.
# (§1) The fluorescent dye will bind to any lipid-binding site of the protein, and the resulting increase in the hydrophobicity surrounding of the dye will result in an increase in the intensity of the fluorescence and a shift in the emission to a shorter wavelength. The emission-wavelength of a compound according to formula I in a hydrophobic surrounding can be determined in a non-aqueous solution such as methanol.
# [2] = biological target: bovine serum albumin (BSA) (Bos taurus, UniProt P02769); assay: Titration of fluorescent dye with bovine serum albumin (BSA); format: binding; settings: for wavelength of maximal emission intensity: FIG. 1a/1b
# Excerpt: (§2) In a preferred embodiment of the invention, the assay for identifying lipid binding sites of proteins using the compounds according to formula I as defined above, comprises the steps of • a) dissolving a compound according to formula I as defined above in an aqueous solvent, • b) adding the protein to be tested for containing a lipid binding site, preferably in various concentrations, • c) measuring the intensity of fluorescence emission at the wavelength of maximal emission of the fluorescent dye.
# as §1
# (§3) For determining the submaximal concentration of dye binding to the protein, the latter was titrated until no further fluorescence increase at 620 nm could be detected.
# [3] = biological target: T1, peroxisomal matrix protein (SCP2) (Homo sapiens, UniProt P22307); assay: Titration of fluorescent dye with peroxisomal matrix protein (SCP2); format: binding; settings: dye 250 nM, FIG. 2b
# T1 sequence (P22307 1-143 isoform P22307-2): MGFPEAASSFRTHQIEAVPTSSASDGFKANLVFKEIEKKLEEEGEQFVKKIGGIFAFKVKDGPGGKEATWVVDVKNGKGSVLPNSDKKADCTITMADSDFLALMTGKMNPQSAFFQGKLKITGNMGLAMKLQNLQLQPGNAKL
# Excerpt: as §2, §1, §3
# [4] = Water solubility; format: physicochemical
# [5] = biological target: cytochrome c (Homo sapiens, UniProt P99999); settings: whole cells; cited from earlier work
# [6] = biological target: BSA (Bos taurus, UniProt P02769)
# Description: Depending on the strength of the binding of the ligand to the lipid binding site of the protein, the ligand releases the fluorescent dye from the hydrophobic lipid binding site. This can be measured by a decrease of the intensity of fluorescence at the emission wavelength of the dye in hydrophobic surrounding, as imitated by dissolving the dye in methanol.
# Increasing concentrations of lipid or drug were added to replace the dye in a dose-dependent fashion. Fluorescence values at 620 nm were corrected for basal fluorescence at 620 nm prior to protein addition as well as for dilution effects from adding increasing ligand concentrations. The starting fluorescence value minus the value at a given ligand concentration was plotted as % replacement.
# Chain of bovine serum albumin (BSA) (P02769 25-607): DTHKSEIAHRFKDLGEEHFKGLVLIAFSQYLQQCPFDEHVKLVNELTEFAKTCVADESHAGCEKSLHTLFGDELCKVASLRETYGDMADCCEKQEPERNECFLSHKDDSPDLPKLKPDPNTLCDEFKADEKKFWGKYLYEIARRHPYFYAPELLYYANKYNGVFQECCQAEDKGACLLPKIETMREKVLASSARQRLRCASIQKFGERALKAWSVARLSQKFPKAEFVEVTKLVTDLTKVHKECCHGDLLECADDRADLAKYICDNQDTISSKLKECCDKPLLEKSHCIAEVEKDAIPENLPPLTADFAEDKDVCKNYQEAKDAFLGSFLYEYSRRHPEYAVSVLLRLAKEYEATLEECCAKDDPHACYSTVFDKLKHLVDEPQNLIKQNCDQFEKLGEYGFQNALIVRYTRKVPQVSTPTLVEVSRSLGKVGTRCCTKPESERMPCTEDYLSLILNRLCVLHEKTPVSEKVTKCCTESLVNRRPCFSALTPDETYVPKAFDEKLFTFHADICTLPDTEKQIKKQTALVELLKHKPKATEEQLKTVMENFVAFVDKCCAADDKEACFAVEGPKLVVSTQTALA
# Chain of BSA (P02769 25-607): as above
# Chain of cytochrome c (P99999 whole entry, species assumed): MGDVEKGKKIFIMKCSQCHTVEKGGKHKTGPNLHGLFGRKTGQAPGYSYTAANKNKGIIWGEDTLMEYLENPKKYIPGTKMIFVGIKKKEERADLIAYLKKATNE
Structure (SMILES),Emission [1] [nm],Excitation [1] [nm],further results
CCN(CC)c1ccc2nc3c4cc(O)ccc4c(=O)cc-3oc2c1 [compound 1],629,540,–
CCN(CC)c1ccc2nc3c4cc(O)ccc4c(=O)c(Br)c-3oc2c1 [compound 2],640,550,–
CCN(CC)c1ccc2nc3c4cc(O)ccc4c(=O)c(Cl)c-3oc2c1 [compound 3],643,549,–
"CCN(CC)c1ccc2nc3c4ccc(O)cc4c(=O)c(Br)c-3oc2c1 [compound 4, 6-Bromo-9-diethylamino-3-hydroxy-benzo[a]phenoxazin-5-one]",650,552,–
"CCN(CC)c1ccc2nc3c4ccc(O)c(Br)c4c(=O)c(Br)c-3oc2c1 [compound 5, 4,6-Dibromo-9-diethylamino-3-hydroxy-benzo[a]phenoxazin-5-one]",653,562,–
"CCN(CC)c1cc(C)c2nc3c4ccc(O)cc4c(=O)cc-3sc2c1 [compound 6, 9-Diethylamino-3-hydroxy-11-methyl-benzo[a]phenothiazin-5-one]",665,580,–
CCCCOc1ccc2c3nc4c(C)cc(N(CC)CC)cc4sc-3cc(=O)c2c1 [compound 7],664,585,Quantum Yield [1]: 0.29
CCCCOc1ccc2c3nc4ccc(N(CC)CC)cc4oc-3c(Br)c(=O)c2c1 [compound 8],650,556,Quantum Yield [1]: 0.35
"CCN(CC)c1ccc2nc3c4cc(OCCCC(=O)O)ccc4c(=O)cc-3oc2c1 [compound 11, nile red butyric acid]",631,544,"change of fluorescence on titration with BSA ([2]; FIG. 1a (dye 0.25 μM) / FIG. 1b (dye 3 μM)): shift in the emission to a shorter wavelength and an increase in the intensity of the fluorescence; binding of BSA to dye compared with SCP2 and MAO B ([2]; dye 250 nM, FIG. 2b): strongest binding; wavelength of maximal emission intensity ([2]; in the absence of BSA): 657 nm; wavelength of maximal emission intensity ([2]; in the presence of BSA): 620 nm; binding of SCP2 to dye compared with BSA and MAO B [3]: weakest; water solubility [4]: increased water solubility"
CCN(CC)c1ccc2nc3c4ccccc4c(=O)cc-3oc2c1 [nile red],–,–,quenching of fluorescence by cytochrome c [5]: strong quenching effect
N[C@@H](Cc1c[nH]c2ccccc12)C(=O)O [tryptophan],–,–,"release of dye from BSA ([6]; 2BrNR 250 nM, 5.54 μM BSA, 282.62 μM ligand, FIG. 5a): not able to release all the dye from BSA; release of dye from BSA ([6]; NRBA, 2 μM BSA, 1 mM ligand, FIG. 5b): not able to release all the dye from BSA; lipid binding sites of albumin occupied / dye molecules replaced ([6]; replacement of NRBA from 2 μM BSA, FIG. 4/5b): only replaced one molecule of the dye; also recorded: occupation of one binding site"
